The target of test [1] is T1, SMOX (Homo sapiens (Human), UniProt Q9NWM0). In words: Human SMOX assay (HyPerBlu chemiluminescent detection of hydrogen peroxide). Type of test: biochemical. The note with it: 2.5 nM full length hSMOX, spermine substrate, 1 h at room temperature, luminescence read; read-out: SMOx_IC50. The method, boiled down: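 Full-length N-His human SMOX (2.5 nM, E. coli-expressed) was incubated 1 h at room temperature with 30 µM spermine, 11-point compound dilutions and 1.25% DMSO in pH 7.4 HEPES/NaCl/EGTA buffer. H2O2 was detected by HyPerBlu chemiluminescence after 30 min, and IC50 came from dose–response fits.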
T1 sequence (Q9NWM0 whole entry): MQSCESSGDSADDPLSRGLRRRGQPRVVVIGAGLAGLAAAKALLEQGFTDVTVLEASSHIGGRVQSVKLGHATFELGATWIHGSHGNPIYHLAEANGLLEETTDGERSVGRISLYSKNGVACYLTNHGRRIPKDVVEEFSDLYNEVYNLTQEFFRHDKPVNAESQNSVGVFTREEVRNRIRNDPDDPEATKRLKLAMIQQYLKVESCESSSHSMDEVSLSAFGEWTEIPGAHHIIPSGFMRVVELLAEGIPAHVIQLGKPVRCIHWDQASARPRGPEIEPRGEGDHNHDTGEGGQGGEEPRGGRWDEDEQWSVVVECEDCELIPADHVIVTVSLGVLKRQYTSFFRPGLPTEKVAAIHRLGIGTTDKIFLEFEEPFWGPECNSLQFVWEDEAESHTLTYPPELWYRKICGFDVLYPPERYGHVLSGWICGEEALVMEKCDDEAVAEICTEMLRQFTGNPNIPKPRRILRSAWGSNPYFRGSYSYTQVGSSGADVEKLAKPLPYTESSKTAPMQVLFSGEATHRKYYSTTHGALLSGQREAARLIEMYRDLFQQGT

The target of a further test is hPAOX (Homo sapiens (Human), UniProt Q6QHF9). In words: Human PAOX assay (HyPerBlu chemiluminescent detection of hydrogen peroxide). Type of test: biochemical. Particulars: 60 pM recombinant PAOX, 20 μM N-acetylspermine substrate. The method, boiled down: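 His-tagged recombinant PAOX expressed in sf9 insect cells was used at 60 pM, with 20 μM N-acetylspermine as substrate. Hydrogen peroxide formed by the reaction was detected by chemiluminescence from a boronate probe (HyPerBlu). Inhibition appears as lower luminescence.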
Sequence of hPAOX (Q6QHF9 whole entry): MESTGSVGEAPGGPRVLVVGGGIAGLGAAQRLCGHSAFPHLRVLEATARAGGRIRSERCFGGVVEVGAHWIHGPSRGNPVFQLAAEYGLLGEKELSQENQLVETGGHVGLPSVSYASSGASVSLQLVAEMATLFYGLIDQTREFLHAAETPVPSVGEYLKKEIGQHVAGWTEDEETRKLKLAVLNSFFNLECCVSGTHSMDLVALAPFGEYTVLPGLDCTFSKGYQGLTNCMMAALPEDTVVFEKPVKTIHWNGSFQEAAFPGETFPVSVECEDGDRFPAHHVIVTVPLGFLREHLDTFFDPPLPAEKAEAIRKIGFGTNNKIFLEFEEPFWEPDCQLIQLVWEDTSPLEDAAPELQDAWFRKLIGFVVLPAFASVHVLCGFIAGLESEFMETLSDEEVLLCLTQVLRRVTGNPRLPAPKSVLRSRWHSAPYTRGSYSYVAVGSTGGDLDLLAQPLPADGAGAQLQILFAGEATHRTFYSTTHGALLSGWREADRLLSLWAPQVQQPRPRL

For test [2], the target named is T1, SMOX. In words: Cellular Thermal Shift Assay (CETSA) with alphaLISA detection of intact SMOX in A549 cells. Type of test: cell-based. Particulars: 1 hour compound incubation at 37° C., heated to 55° C. for 5 minutes. From the text:
The Cellular Thermal Shift Assay (CETSA) is a biophysical assay based on the principle of ligand-induced thermal stabilization of target proteins, meaning that a protein denaturing temperature will change upon ligand interaction. Thus, by heating samples (i.e. cells, ex vivo samples) to different temperatures, and quantifying conformationally intact proteins we can detect compound-protein interactions after compound treatment. CETSA allows direct monitoring of ligand binding to a specific target (target engagement). In our study, we have developed a suitable detection system that will detect intact SMOX using the alphaLISA. […] The detection of compound -SMOX ligand binding is performed using A549 cells. This adenocarcinoma human alveolar basal epithelial cell line expresses high levels of SMOX. Their use has been widely reported in the literature with respect to the investigation of the SMOX pathway. Using SMOX high-expressing cells with CETSA and alphaLISA systems provides the optimal platform for screening small molecules for SMOX inhibition.
A549 cells were seeded at a density of 0.05-0.1×10^6 cells/mL in T175 flasks and cultured in 25 mL of culture medium consisting in RPMI 1640 medium (Gibco) supplemented with 10% fetal bovine serum (Gibco). Cells were passaged twice per week and used for CETSA assays before reaching confluency. One day prior to the CETSA cells were seeded in 384-well white assay plates (Corning) at 15000 cells per well. Briefly, cells were washed with PBS (Life Technologies Europe BV) and dissociated by adding 2 mL TrypLE™ Select (Life Technologies Europe BV). After 5 min at 37° C., cells were resuspended in culture medium, counted using a ViCell XR cell counter (ViCell) and seeded in the 384-well plates.
Compounds were pre-diluted in PBS to a final concentration of […] and 1% DMSO and serially diluted in PBS 1% DMSO. For compound-cell incubation, medium in the 384 well plates was replaced with 30 μL of serially diluted compounds. After incubation at 37° C. for 1 hour the liquid was removed and plates were heated to 55° C. for 5 minutes and then transferred to ice for 5 minutes. After the cooling step, cells were lysed by adding 15 μL 1× alphaLISA-buffer (Perkin Elmer) containing anti-SMOX monoclonal antibody #2 and anti-SMOX Fab-fragment #33 mixture at a concentration of 5 and 0.5 nM respectively. After one hour at RT, 5 μL anti-6×His alphaLISA acceptor beads (50 mg/L, AL128C, Perkin Elmer) were added to the wells followed by an additional incubation of one hour at RT. Then 5 μL anti-rabbit IgG alpha donor beads (200 mg/L was added to the wells. After one hour incubation at RT the alpha signal was read using an alpha compatible reader. MDL75257 (M2949, Sigma) was used as positive control for compound-SMOX interaction. Compound-SMOX interaction is detected through the comparison of the high alpha signal of the negative control with the much lower signal of the wells that contain SMOX binding compounds.
For orientation: In Alpha technology, singlet oxygen from a donor bead excites a nearby acceptor bead.

Structures can show the parent of a compound that is named as a salt.

`Cn1ccnc1CCCNC(=O)c1cc2nc(-c3ccccc3)cc(-c3ccccc3)n2n1` [Example 1, N-(3-(1-Methyl-1H-imidazol-2-yl)propyl)-5,7-diphenylpyrazolo[1,5-a]pyrimidine-2-carboxamide]: the IC50 at SMOX [1] came to 46 nM; at hPAOX it was 397 nM. Further, the “SMOx % recovery CETSA” value on SMOX [2] stood at 12%.
The matching figures for `Cc1nccn1CCCNC(=O)c1cc2nc(-c3ccccc3)cc(-c3ccccc3)n2n1` [Example 2, N-(3-(2-Methyl-1H-imidazol-1-yl)propyl)-5,7-diphenylpyrazolo[1,5-a]pyrimidine-2-carboxamide]: 45 nM, 942 nM and 26%.
In the same order, the values of `O=C(NCCn1ccnc1)c1cc2nc(-c3ccccc3)cc(-c3ccccc3)n2n1` [Example 12, N-(2-(1H-Imidazol-1-yl)ethyl)-5,7-diphenylpyrazolo[1,5-a]pyrimidine-2-carboxamide] are 231 nM, 233 nM and 0%.
In the same order, the values of `CCN1CCC[C@@H]1CNC(=O)c1cc2nc(-c3ccccc3)cc(-c3ccccc3)n2n1` [Example 15, (R)—N-((1-Ethylpyrrolidin-2-yl)methyl)-5,7-diphenylpyrazolo[1,5-a]pyrimidine-2-carboxamide] are 192 nM, 6320 nM and 4%.
For `CN(C)CCCNC(=O)c1cc2nc(-c3ccccc3)cc(-c3ccccc3)n2n1` [Example 18, N-(3-(Dimethylamino)propyl)-5,7-diphenylpyrazolo[1,5-a]pyrimidine-2-carboxamide], the IC50 on SMOX [1] amounted to 161 nM; on hPAOX it was 680 nM. In addition, the “SMOx % recovery CETSA” value at SMOX [2] is 0%.
In the same order, the values of `CN1CCC(CNC(=O)c2cc3nc(-c4ccccc4)cc(-c4ccccc4)n3n2)C1` (stereo not drawn) [Example 19, N-((1-Methylpyrrolidin-3-yl)methyl)-5,7-diphenylpyrazolo[1,5-a]pyrimidine-2-carboxamide] are 158 nM, 307 nM and 2%.
In the case of `O=C(NCC1CCc2nccn2C1)c1cc2nc(-c3ccccc3)cc(-c3ccccc3)n2n1` (stereo not drawn) [Example 20, 5,7-Diphenyl-N-((5,6,7,8-tetrahydroimidazo[1,2-a]pyridin-6-yl)methyl)pyrazolo[1,5-a]pyrimidine-2-carboxamide], the IC50 worked out at 65 nM at SMOX [1] and 306 nM at hPAOX. Further, the “SMOx % recovery CETSA” value on SMOX [2] was 10%.
The matching figures for `CN1CCC(C)(CNC(=O)c2cc3nc(-c4ccccc4)cc(-c4ccccc4)n3n2)C1` (stereo not drawn) [Example 21, N-((1,3-Dimethylpyrrolidin-3-yl)methyl)-5,7-diphenylpyrazolo[1,5-a]pyrimidine-2-carboxamide]: 117 nM, 8610 nM and 2%.
Regarding `O=C(NCCCn1ccnc1)c1cc2nc(-c3ccccc3)cc(C3CCCC3)n2n1` [Example 108, N-(3-(1H-imidazol-1-yl)propyl)-7-cyclopentyl-5-phenylpyrazolo[1,5-a]pyrimidine-2-carboxamide], the IC50 on SMOX [1] was determined as 305 nM; on hPAOX it was 840 nM.
Turning to `O=C(NCCCn1ccnc1)c1cc2nc(-c3ccccc3)cc(C3CCC3)n2n1` [Example 109, N-(3-(1H-imidazol-1-yl)propyl)-7-cyclobutyl-5-phenylpyrazolo[1,5-a]pyrimidine-2-carboxamide], the results for the IC50 on SMOX [1] and on hPAOX were 956 nM and 470 nM, respectively.
The matching figures for `O=C(NCCCn1ccnc1)c1cc2nc(-c3ccccc3)cc(C3CCCO3)n2n1` (stereo not drawn) [Example 110, N-(3-(1H-imidazol-1-yl)propyl)-5-phenyl-7-(tetrahydrofuran-2-yl)pyrazolo[1,5-a]pyrimidine-2-carboxamide]: 1750 nM and 3070 nM.
In the same order, the values of `CC(C)Cc1cc(-c2ccccc2)nc2cc(C(=O)NCCCn3ccnc3)nn12` [Example 112, N-(3-(1H-imidazol-1-yl)propyl)-7-isobutyl-5-phenylpyrazolo[1,5-a]pyrimidine-2-carboxamide] are 1630 nM and 1940 nM.
The matching figures for `O=C(NCCCn1ccnc1)c1cc2nc(-c3ccccc3)cc(C3CC3)n2n1` [Example 113, N-(3-(1H-imidazol-1-yl)propyl)-7-cyclopropyl-5-phenylpyrazolo[1,5-a]pyrimidine-2-carboxamide]: 1200 nM and 2290 nM.
Consider `O=C(NCCCn1ccnc1)c1cc2nc(-c3ccccc3)cc(C3CCCCN3)n2n1` (stereo not drawn) [Example 114, N-(3-(1H-imidazo-1-yl)propyl)-5-phenyl-7-(piperidin-2.yl)pyrazolo[1,5-a]pyrimidine-2-carboxamide], for which the IC50 at SMOX [1] was 776 nM; at hPAOX, 8460 nM.
In the same order, the values of `O=C(NC1CNC1)c1cc2nc(-c3ccccc3)cc(-c3ccccc3)n2n1` [Example 115, N-(azetidin-3-yl)-5,7-diphenylpyrazolo[1,5-a]pyrimidine-2-carboxamide] are 282 nM and 213 nM.
The matching figures for `NCCCNC(=O)c1cc2nc(-c3ccccc3)cc(-c3ccccc3)n2n1` [Example 116, N-(3-aminopropyl)-5,7-diphenylpyrazolo[1,5-a]pyrimidine-2-carboxamide]: 296 nM and 119 nM.
The matching figures for `O=C(NCC1CCCN1)c1cc2nc(-c3ccccc3)cc(-c3ccccc3)n2n1` (stereo not drawn) [Example 117, 5,7-diphenyl-(pyrrolidin-2-ylmethyl)pyrazolo[1,5-a]pyrimidine-2-carboxamide]: 142 nM and 197 nM.
On to `CNCCCNC(=O)c1cc2nc(-c3ccccc3)cc(-c3ccccc3)n2n1` [Example 118, N-(3-(methylamino)propyl)-5,7-diphenylpyrazolo[1,5-a]pyrimidine-2-carboxamide], for which the IC50 came to 230 nM on SMOX [1] and 103 nM at hPAOX.
Consider `NCCNC(=O)c1cc2nc(-c3ccccc3)cc(-c3ccccc3)n2n1` [Example 119, N-(2-aminoethyl)-5,7-diphenylpyrazolo[1,5-a]pyrimidine-2-carboxamide hydrochloride], for which the IC50 on SMOX [1] worked out at 801 nM; on hPAOX it was 2400 nM.
In the same order, the values of `CC(CN)CNC(=O)c1cc2nc(-c3ccccc3)cc(-c3ccccc3)n2n1` (stereo not drawn) [Example 120, N-(3-amino-2-methylpropyl)-5,7-diphenylpyrazolo[1,5-a]pyrimidine-2-carboxamide hydrochloride] are 582 nM and 1220 nM.
In the same order, the values of `O=C(NCC1CCNC1)c1cc2nc(-c3ccccc3)cc(-c3ccccc3)n2n1` (stereo not drawn) [Example 121, 5,7-diphenyl-N-(pyrrolidin-3-ylmethyl)pyrazolo[1,5-a]pyrimidine-2-carboxamide] are 416 nM and 641 nM.
In the same order, the values of `O=C(NCCN1CCOCC1)c1cc2nc(-c3ccccc3)cc(-c3ccccc3)n2n1` [Example 122, N-(2-morpholinoethyl)-5,7-diphenylpyrazolo[1,5-a]pyrimidine-2-carboxamide] are 20600 nM and greater than 31200 nM.
With `Cc1cc(-c2ccccc2)nc2cc(C(=O)NCCCn3ccnc3)nn12` [Example 123, N-(3-(1H-imidazol-1-yl)propyl)-7-methyl-5-phenylpyrazolo[1,5-a]pyrimidine-2-carboxamide], the IC50 stood at 9770 nM at SMOX [1] and 4040 nM on hPAOX.

Source of the values: US20250161307A1, “PYRAZOLOPYRIMIDINES AS MODULATORS OF SPERMINE OXIDASE” (Janssen Pharmaceutica NV, priority 2022, published 2025).
